Earlier results as cited in article PMC12785453, “Oral Fluid Concentrations and Pharmacological Effects of Clephedrone and Methylone in Humans” (International Journal of Molecular Sciences, 2025).
Where “and” joins values, the source holds several entries; their conditions need not be identical. Equal values may be shown once.

What was measured:
[1] = cited from earlier work
humans = conditions: mephedrone, previous studies; cited from earlier work

CNC(C)C(=O)c1ccc(C)cc1 (stereo not shown) [mephedrone, 4-methylmethcathinone]
Tmax in oral fluid [1]: 2 h | Tmax in plasma [1]: 1.25 h | Effects returned to baseline after (humans): 2 to 3 h | Time of peak effects (humans): 0.75 h and 0.75 to 1 h
